Measurements as given in patent US11229597B2, “Topical doxycycline composition” (HORUS PHARMA, priority 2017, dated 2022).

Assay: Stability tests of doxycycline (active principle content by HPLC over time)
Format: physicochemical
Details: for stability of doxycycline in glycerol solution as a function of time: 25° C. (FIG. 2)
Description: The preparation in the form of an H/L emulsion containing the active principle and cyclodextrins in solution in the polyol is carried out according to the following method: • The liquid hydrophobic material/semi-solid hydrophobic material base (called phase A) is formulated by mixing in a water bath at 75° C. to make all components miscible. For the mass ratio of liquid hydrophobic material to semi-solid hydrophobic material 0/100, the semi-solid hydrophobic material is added directly to the mixer at 45° C. • The temperature of phase A is lowered to 45° C. and then phase A is transferred to the mixer whose temperature is 45° C. • The cyclodextrin is added to the polyol (called phase B) and magnetically stirred then the doxycyline hyclate is added to phase B and magnetically stirred until all components are completely dissolved, the temperature of the solution is increased to 45° C. • When phases A and B are at the same temperature, phase B is added to phase A under stirring to form an emulsion. • The emulsion is stirred for 30 minutes at 700 rpm at 45° C. and then the temperature of the entire mixture is reduced to 37° C. • The resulting emulsion is packaged and cooled to room temperature. In order to assay of the active principle in the formulation, the following extraction is carried out: • 1.0 g of the formula is diluted in 10.0 g of water and stirred with a suitable stirring system for 30 minutes at 45° C. • After filtration with a nylon filter at 0.45 μm, a dilution in the mobile phase is performed for a high-performance liquid chromatography assay. The active principle content is determined by the following high-performance liquid chromatography method: • Column: XTerra® RP 8 5 μm 4.6×250 mm • Mobile phase: • 65% water containing 0.13% oxalic acid • 22% acetonitrile • 13% methanol • Flow rate: 1.0 mL/min
Stability tests are performed at temperatures of 25° C. and 40° C.: […]

Row | Compound | stability of doxycycline in glycerol solution as a function of time (0.1% doxycycline hyclate in glycerol with β-cyclodextrins) | stability of doxycycline in glycerol solution as a function of time (0.1% doxycycline hyclate in glycerol without β-cyclodextrins) | stability of doxycycline in aqueous solution as a function of time (0.1% aqueous solution, 25° C. and 40° C. (FIG. 1))
1 | doxycycline hyclate | no or little degradation | no or little degradation | 
2 | C[C@H]1c2cccc(O)c2C(=O)C2=C(O)[C@]3(O)C(=O)C(C(N)=O)=C(O)[C@@H](N(C)C)[C@@H]3[C@@H](O)[C@@H]21 [doxycycline] |  |  | rapidly degraded
